Patent US20070264250A1, “Composition for Skin-Whitening and Wrinkle-Care” (priority 2004, published 2007)

Type: physicochemical
Details: 1 mM, pH 7
Experimental: Stabilities of 2-o-α-glucopyranosyl-L-ascorbic acid and ascorbic acid in an aqueous solution were compared.
(1) 2-o-α-glucopyranosyl-L-ascorbic acid, (2) ascorbic acid, and (3) 2-o-α-glucopyranosyl-L-ascorbic acid and 10 units of α-glucosidase were added to 50 mM potassium phosphate buffer solution (pH 7.0) so that a concentration of each component was 1 mM, to produce test groups. The test groups were stored at 37° C., sampled every day for 5 days, and quantitatively analyzed.
The quantitative analysis (HPLC analysis) for test materials was conducted under conditions described in the following Table 1. An amount of remaining 2-o-α-glucopyranosyl-L-ascorbic acid or ascorbic acid which was not degraded was reduced by an initial concentration, and stability was evaluated using the ratio.
However, almost all vitamin C was degraded within 2 days. […] As well, it was confirmed that converted vitamin C was immediately degraded.

O=C1O[C@H]([C@@H](O)CO)C(O)=C1O [vitamin C, ascorbic acid]
time within which almost all was degraded: ≤ 2 days
